Test results reported in patent US5510459A, “Glucagon antagonists” (ZymoGenetics, Inc., priority 1992, dated 1996).
Ends that are not written are not given here.

How the values were obtained:
[1] = molecular target: T1, glucagon receptor (rat liver membrane adenylate cyclase) (Rattus norvegicus, UniProt P30082); experiment: Adenylate cyclase activity assay with synthetic peptide glucagon analogs (Example 6); type: biochemical; conditions: synthetic peptides; in the presence of 20 nm glucagon
T1 construct: A. Preparation of Rat Liver Membranes; from tissue; host or cells: rat liver (Sprague-Dawley) plasma membranes
T1 sequence (P30082 27-485): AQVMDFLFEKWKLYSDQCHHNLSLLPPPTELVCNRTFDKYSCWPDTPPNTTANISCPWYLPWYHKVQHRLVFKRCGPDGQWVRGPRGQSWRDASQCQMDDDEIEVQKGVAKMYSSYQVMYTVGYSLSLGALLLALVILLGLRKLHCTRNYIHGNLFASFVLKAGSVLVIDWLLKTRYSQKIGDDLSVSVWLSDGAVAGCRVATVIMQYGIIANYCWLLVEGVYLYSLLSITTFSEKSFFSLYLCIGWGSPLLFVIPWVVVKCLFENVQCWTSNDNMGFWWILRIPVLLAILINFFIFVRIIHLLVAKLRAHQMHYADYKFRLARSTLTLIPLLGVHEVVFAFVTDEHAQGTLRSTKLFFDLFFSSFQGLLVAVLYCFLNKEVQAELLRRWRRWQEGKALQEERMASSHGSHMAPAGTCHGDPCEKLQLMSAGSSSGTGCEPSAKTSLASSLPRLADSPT
Protocol: The adenylate cyclase assay was carried out byfirst adding 5 μl of sample (e.g. yeast broth) containingpotential inhibitors at micromolar concentrations to eachwell of a 96-well microtiter plate. […] Fifty microliters of the A+Bsolution was added to each "no glucagon" control well.Glucagon was added from the "G" solution to the remainingA+B solution to a concentration of 1×10^-8 M (thisresults in a final assay concentration of 5×10^-9).Fifty microliters of the A+B+glucagon solution was addedto each well, excluding the "no glucagon" controls. Themembrane preparation was diluted to approximately 2 mg/mlprotein with water. The reaction was started by theaddition of 45 μl of diluted membrane to each well, inorder. The assays were incubated for 12 minutes at roomtemperature, and were stopped by the addition of 100 μl ofStop Mix to each well in the same order that the dilutedmembrane was added. The assay mixtures were clarified bycentrifugation, and the assays were stored at 4° C.
Cyclic AMP concentrations were determined usingan Amersham Scintillation Proximity Assay Kit (Amersham,Arlington Heights, Ill.). Briefly, 10 μl from eachadenylate cyclase reaction was added to individual betaplate wells. Each sample was diluted with 65 μl of 50 mM Na Acetate. Cyclic AMP standards were prepared at 0.0,1.6 and 6.4×10^-9 M or may be prepared from the"non-standards" supplied with Amersham kit.Triplicate standards of 75 μl of each standard were addedto individual beta plate wells. Nonspecific binding (NSB)controls were prepared by adding 150 μl of 50 mM NaAcetate to triplicate beta plate wells. […] Seventy-fivemicroliters of diluted anti-rabbit SPA reagent was thenadded to each well, and the plates were sealed andincubated, with shaking, overnight at room temperature.The plates were counted for one minute per sample in abeta-plate counter. […] The percent response for thestandards and samples was determined using the formula: […]

[2] = molecular target: T2, glucagon receptor (liver plasma membranes) (Rattus norvegicus, UniProt P30082); experiment: Glucagon binding assay (125I-glucagon, liver plasma membranes); conditions: 30 minute incubation at 30° C., peptide 1.5-800 ng/ml
T2 construct: 25 μl of freshly thawed plasmamembrane containing 10-20 μg of plasma membrane protein; from tissue
T2 sequence (P30082 27-485): as above
Protocol: The ability of the synthetic peptides to inhibitglucagon binding was determined by measuring the bindingof radiolabeled glucagon in the presence of syntheticpeptide relative to the binding of radiolabeled glucagonin the absence of the synthetic peptides. The syntheticpeptides were dissolved in 10% acetic acid and lyophilizedbefore use. Glucagon was dissolved in 10% acetic acid andlyophilized in 25-μg portions for use as standards. ^125 I-glucagonwith a specific activity of 11.1 kBq/ng wasobtained from Novo Biolabs (Novo Alle, Bagsvaerd, Denmark)and stored at -18° C. Plasma membranes were prepared aspreviously described, except protein detemination wascarried out using a Bio-Rad Protein Assay (BioRad,Richmond, Calif.) according to the manufacturer's directionsusing bovine serum albumin as a standard. Milli-Q gradewater was used throughout .
The lyophilized glucagon and synthetic peptideswere dissolved in 100 μl of 0.05M HCl, left for 3 minutes. The glucagon was diluted with buffer (2.5% humanserum albumin Grade 5, Sigma Chemical Co., St. Louis, Mo.! in 0.1M HEPES, 0.15M NaCl, pH 7.4) to 0.2-200ng/ml.The synthetic peptides were diluted with the same bufferto 1.5-800 ng/ml. […] The filters were counted in a gamma counter.The binding of des-His^1 -(Ala^2,11 -Glu^21)glucagonamide wasshown to be 84%±9.3.

[3] = molecular target: T1, glucagon receptor (rat liver membrane adenylate cyclase); experiment: Glucagon antagonist screening assay: adenylate cyclase reaction and cAMP assay with yeast culture broths; type: biochemical; conditions: no exogenous glucagon
Excerpt: Young female Sprague-Dawley rats were used forthe preparation of liver membranes using the methodessentially described by Neville (ibid.) and modified byPohl et al. (ibid). Ten to 15 rats yielding 60-100 grams of liver were processed per batch. After the rats wereeuthanized by cervical dislocation, their livers weresurgically removed and transferred, as quickly aspossible, to an iced beaker. Scissors were used to mincethe tissue into pieces approximately 3-6 mm in size. Anyconnective tissue that was present was removed.
The minced tissue was suspended in ice cold 1 mMsodium bicarbonate at a concentration of approximately300 g/l. This suspension was processed in batches in atissue homogenizer with eight strokes of the loose pestle.The homogenate was mixed with additional ice cold 1 mMsodium bicarbonate to yield a final concentration of about40-80 g/l. […]
After centrifugation, as much of the supernatantas possible was carefully decanted and discarded, and thepellets were gently resuspended in the remainingsupernatant with three strokes of the loose pestle in aclean tissue homogenizer. […] After thorough mixing, thesucrose concentration was measured with a refractometerand adjusted to between 43.9% and 44.1% sucrose(corresponding to a refractive index between 1.4076 and1.4080) with either 69% sucrose or water. […]

Molecule	inhibition coefficient (I/A50): ratio of inhibitor to agonist concentration wherein the response is reduced to one-half [1]	other results
CSCC[C@H](NC(=O)[C@H](CC(C)C)NC(=O)[C@H](Cc1c[nH]c2ccccc12)NC(=O)[C@H](CCC(N)=O)NC(=O)[C@@H](NC(=O)[C@H](Cc1ccccc1)NC(=O)[C@H](CC(=O)O)NC(=O)[C@H](CCC(N)=O)NC(=O)[C@H](C)NC(=O)[C@H](CCCNC(=N)N)NC(=O)[C@H](CCCNC(=N)N)NC(=O)[C@H](CO)NC(=O)[C@H](CC(=O)O)NC(=O)[C@H](CC(C)C)NC(=O)[C@H](Cc1ccc(O)cc1)NC(=O)[C@H](CCCCN)NC(=O)[C@H](CO)NC(=O)[C@H](Cc1ccc(O)cc1)NC(=O)[C@H](CC(=O)O)NC(=O)[C@H](CO)NC(=O)[C@@H](NC(=O)[C@H](Cc1ccccc1)NC(=O)[C@@H](NC(=O)CNC(=O)[C@H](CCC(N)=O)NC(=O)[C@@H](N)CO)[C@@H](C)O)[C@@H](C)O)C(C)C)C(=O)N[C@@H](CC(N)=O)C(=O)N[C@@H](CO)C(=O)O [F73, des-His^1 - Ser^29 !glucagon]	30	
AQGTFTSDYAKYLDSRRAQEFVQWLMNT-NH2 [des-His^1 -(Ala^2,11 -Glu^21)glucagon amide]		binding (inhibition of radiolabeled glucagon binding) [2]: 84%±9.3
DAQGTFISDYSKYLDSRRAQDFVQWLMNT [BB65, Asp^1 -Ala^2 -Ile^7 !glucagon]	25	
SQSTFTSDYSKYLDSRRAQDFVQWLMNT [G56, des-His^1 - Ser^4 !glucagon]	25	
glucagon [ZB210]		stimulation of adenylate cyclase activity by culture broth in the absence of exogenous glucagon [3]: stimulation of adenylate cyclase
